# From ChEMBL document CHEMBL1201862, “PubChem BioAssay data set” (2004)
#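 In this assay, cells in 96-well plates receive the compound at five concentrations for 48 hours. Endpoints are linearly interpolated between the surrounding concentrations. The concentration for 50% growth inhibition is given as GI50.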 The source made the active and inactive calls. Rule as the data show it: active = GI50 up to about 1.1 µM and inactive = higher.
# How the values were obtained:
# Assay in all cases: NCI-60 cell line screen, 48 h
# [1] = test system: ACHN
# [2] = test system: BT-549
# [3] = test system: CAKI-1
# [4] = test system: HOP-62
# [5] = test system: K562
# [6] = test system: M14
# [7] = test system: Malme-3M
# [8] = test system: NCI-H23
# [9] = test system: NCI-H522
# [10] = test system: OVCAR-4
# [11] = test system: RPMI-8226
# [12] = test system: SF-295
# [13] = test system: SK-OV-3
# [14] = test system: SN12C
# [15] = test system: SNB-19
# [16] = test system: UO-31
# [17] = test system: HT-29
# [18] = test system: IGROV-1
# [19] = test system: SF-539
# [20] = test system: SNB-75
Compound,GI50 [1],GI50 [2],GI50 [3],GI50 [4],GI50 [5],GI50 [6],GI50 [7],GI50 [8],GI50 [9],GI50 [10],GI50 [11],GI50 [12],GI50 [13],GI50 [14],GI50 [15],GI50 [16],GI50 [17],GI50 [18],GI50 [19],GI50 [20]
Cc1ccc(S(=O)(=O)Nc2nnc(S(N)(=O)=O)s2)cc1,> 100 µM (inactive),> 100 µM (inactive),> 100 µM (inactive),> 100 µM (inactive),> 100 µM (inactive),> 100 µM (inactive),> 100 µM (inactive),> 100 µM (inactive),> 100 µM (inactive),> 100 µM (inactive),> 100 µM (inactive),> 100 µM (inactive),> 100 µM (inactive),> 100 µM (inactive),> 100 µM (inactive),> 100 µM (inactive),–,–,–,–
C#Cc1cc(-c2nc3ccccc3s2)ccc1N,24 µM (inactive),20 µM (inactive),20.5 µM (inactive),37.3 µM (inactive),25.3 µM (inactive),17.6 µM (inactive),24.4 µM (inactive),16.5 µM (inactive),15.8 µM (inactive),17.6 µM (inactive),25.4 µM (inactive),20 µM (inactive),26.4 µM (inactive),22 µM (inactive),20 µM (inactive),14.2 µM (inactive),18 µM (inactive),0.615 µM (active),32.2 µM (inactive),–
CCOc1cc2c(cc1O)/C(=N\OC)C[C@@H]1[C@@H]2CC[C@]2(C)[C@@H](O)CC[C@@H]12,1.09 µM (active),1.71 µM (inactive),–,< 0.0461 µM (active),0.0596 µM (active),0.15 µM (active),0.129 µM (active),0.324 µM (active),0.0288 µM (active),10.7 µM (inactive),0.167 µM (active),–,0.243 µM (active),0.372 µM (active),2.11 µM (inactive),0.875 µM (active),3.81 µM (inactive),0.923 µM (active),–,0.0219 µM (active)
Cc1nc(N)c(N2CCN(CN)CC2)c(O)n1,> 100 µM (inactive),> 100 µM (inactive),–,> 100 µM (inactive),> 100 µM (inactive),> 100 µM (inactive),> 100 µM (inactive),> 100 µM (inactive),> 100 µM (inactive),> 100 µM (inactive),> 100 µM (inactive),> 100 µM (inactive),–,> 100 µM (inactive),> 100 µM (inactive),> 100 µM (inactive),> 100 µM (inactive),–,> 100 µM (inactive),> 100 µM (inactive)
O=C(Cn1c(C(=O)/C=C/c2ccc(Cl)cc2)nc2ccccc21)c1ccc(Cl)cc1,20.7 µM (inactive),24.5 µM (inactive),–,16.4 µM (inactive),6.07 µM (inactive),18.1 µM (inactive),20.9 µM (inactive),19.5 µM (inactive),–,13.4 µM (inactive),6.18 µM (inactive),–,26.9 µM (inactive),14.1 µM (inactive),20.7 µM (inactive),19.8 µM (inactive),15 µM (inactive),16.7 µM (inactive),18.3 µM (inactive),–
COC(=O)C1C(O)C(C(=O)OC)C(C)N(C)C1C (centres undefined),> 100 µM (inactive),> 100 µM (inactive),> 100 µM (inactive),> 100 µM (inactive),> 100 µM (inactive),> 100 µM (inactive),–,> 100 µM (inactive),–,> 100 µM (inactive),> 100 µM (inactive),> 100 µM (inactive),> 100 µM (inactive),> 100 µM (inactive),> 100 µM (inactive),> 100 µM (inactive),> 100 µM (inactive),> 100 µM (inactive),> 100 µM (inactive),–
COP(=O)(/C=C/c1cc(C(=O)OCc2ccccc2)n(S(=O)(=O)c2ccccc2)c1)OC,> 100 µM (inactive),> 100 µM (inactive),> 100 µM (inactive),> 100 µM (inactive),> 100 µM (inactive),> 100 µM (inactive),> 100 µM (inactive),> 100 µM (inactive),> 100 µM (inactive),> 100 µM (inactive),–,> 100 µM (inactive),> 100 µM (inactive),> 100 µM (inactive),> 100 µM (inactive),> 100 µM (inactive),> 100 µM (inactive),> 100 µM (inactive),> 100 µM (inactive),57.1 µM (inactive)
CCOC(=O)Nc1cc2c(c(N)n1)N=C(c1ccc3ccccc3c1)CN2,0.258 µM (active),1.75 µM (inactive),1.25 µM (inactive),0.0564 µM (active),< 0.01 µM (active),0.617 µM (active),0.292 µM (active),0.325 µM (active),0.0769 µM (active),1.44 µM (inactive),–,0.0281 µM (active),0.2 µM (active),0.0711 µM (active),0.0614 µM (active),0.301 µM (active),0.301 µM (active),0.644 µM (active),0.08 µM (active),0.111 µM (active)
CCCCCCCSCC(O)COC(c1ccccc1)(c1ccccc1)c1ccccc1 (centres undefined),25.5 µM (inactive),73.1 µM (inactive),60.4 µM (inactive),> 100 µM (inactive),54.6 µM (inactive),61.7 µM (inactive),60 µM (inactive),14.8 µM (inactive),35.2 µM (inactive),49.9 µM (inactive),17.5 µM (inactive),35.3 µM (inactive),> 100 µM (inactive),37.7 µM (inactive),76.6 µM (inactive),5.81 µM (inactive),19.7 µM (inactive),> 100 µM (inactive),> 100 µM (inactive),–
CC(NC(=O)C(N)Cc1ccc(O)cn1)C(=O)O (centres undefined),> 100 µM (inactive),> 100 µM (inactive),> 100 µM (inactive),> 100 µM (inactive),> 100 µM (inactive),–,> 100 µM (inactive),> 100 µM (inactive),> 100 µM (inactive),> 100 µM (inactive),> 100 µM (inactive),> 100 µM (inactive),–,> 100 µM (inactive),> 100 µM (inactive),> 100 µM (inactive),> 100 µM (inactive),> 100 µM (inactive),> 100 µM (inactive),–
CCOP(=O)(OCC)C(N)c1ccc(Cl)cc1 (centres undefined),> 100 µM (inactive),> 100 µM (inactive),> 100 µM (inactive),–,–,> 100 µM (inactive),> 100 µM (inactive),> 100 µM (inactive),> 100 µM (inactive),> 100 µM (inactive),> 100 µM (inactive),–,–,> 100 µM (inactive),> 100 µM (inactive),–,> 100 µM (inactive),> 100 µM (inactive),> 100 µM (inactive),–
CC(C)C(C/C=C1/CC(CO)(COC(=O)c2ccccc2)OC1=O)C(C)C (centres undefined),13.9 µM (inactive),18.3 µM (inactive),14.6 µM (inactive),9.93 µM (inactive),9.04 µM (inactive),15.7 µM (inactive),12 µM (inactive),18.1 µM (inactive),19.9 µM (inactive),15 µM (inactive),–,12.2 µM (inactive),45.4 µM (inactive),15.5 µM (inactive),16.7 µM (inactive),16.3 µM (inactive),18.7 µM (inactive),20.2 µM (inactive),4.69 µM (inactive),7.5 µM (inactive)
